Legend:
HCMV DNA synthesis = HCMV DNA synthesis by dot-blot hybridization; type: cell-based, human cytomegalovirus in HFF cells; conditions: Human betaherpesvirus 5, read-out: HCMV DNA Synthesis, 50% Inhibitory Concentration
Method: The amount of HCMV DNA synthesis was determined in two types of experiments: (a) as an integral part of HCMV titer (yield) reduction experiments and (b) as separate experiments to determine only the amount of viral DNA synthesis in the absence or presence of test compounds.
HFF cells were planted in 25 cm^2 flasks and infected with HCMV as described in part 2 and incubated at 37° C. Before harvesting at selected times by the addition of 0.1 volume of 0.2M EDTA, an aliquot of medium was removed for determination of HCMV titer. After harvesting cells into the medium, aliquots were retained for determination of HCMV DNA by hybridization.
HFF cells were planted in 96-well cluster plates at 20,000 cell/well in 200 μl of growth medium [MEM(E)] with 1.1 gm/liter NaHCO3 and 10% fetal bovine serum. After incubation in a humidified atmosphere of 4% CO2 -96% air for 1 to 2 days, growth medium was aspirated and the 70% confluent cells were infected at a m.o.i. of 0.5 p.f.u. per cell by addition of HCMV in 100 μl of MEM(E) with 1.1 gm/l liter NaHCO3 and 5% fetal bovine serum (maintenance medium). Following a 1-hour incubation at 37° C. for virus adsorption, 100 μl of selected concentrations of test compounds were added to each of triplicate wells in twice their final concentration of maintenance medium. Usually 3 to 6 concentrations of compounds were tested in 3.2- or 10-fold dilutions along with appropriate triplicate no drug and no virus controls. Plates were incubated for 7 days and harvested by addition of 100 μl of 0.25M EDTA per well. After a 30-minute incubation of 37° C. to free the cells, the contents of the wells were filtered as described below or frozen at -76° C. for subsequent analysis. The following procedure adapted from Gadler, H., Antimicrob. Agents Chemother., 24:370 (1983) was employed for the hybridization portion of the assay:
The contents of each well were removed and filtered through Gene Screen™ (NEN Research Products), presoaked in 10×SSC (1×SSC is 0.15M NaCl, 0.015M NaCitrate), using a 96-well filtration manifold (Schleicher and Schuell). The original microtiter plate wells were rinsed with 200 μl HEPES buffered saline and the contents added to the filter manifold.
The Gene Screen membrane was dried at room temperature and then baked at 80° to 100° C. for 3 to 4 hours. The DNA on the membrane was denatured by placing the membrane (sample side up) sequentially on filter papers soaked in (a) 0.5M NaOH for 30 minutes, (b) 0.1 M NaOH, 1.5M NaCl for 5 minutes, (c) 1M Tris HCl, pH 7.5 twice each for 5 minutes, (d) 0.5M Tris HCl, pH 7.5, 1.5M NaCl for 5 minutes and then dried at room temperature. The membrane was added to a "hybridization bag" and prehybridized at 65° C. for (greater or equal to) 6 hours in 10 ml 0.2% polyvinylpyrrolidone (MW 40,000); 0.2% ficoll (MW 400,000); 0.2% bovine serum albumin; 0.05 M Tris HCl, pH 7.5; 0.1% sodium pyrophosphate; 1M NaCl; 10% dextran sulfate (ME 500,000) and 0.1 mg/ml denatured salmon testes DNA. […]
Following hybridization, the membrane was washed sequentially in 100 ml 2×SSC at room temperature twice each for 5 minutes, 100 ml 2×SCC plus 1% SDS at 65° C. twice each for 30 minutes and then 100 ml 0.1×SSC at room temperature twice each for 30 minutes. The membrane was dried at room temperature and each filtration spot was cut from the membrane and placed into 4 ml of toluene/DPO scintillant and hybridized label counted in a liquid scintillation spectrometer. […]

KB cells = experiment: Growth of KB cells (population doubling times); type: cell-based, human; conditions: for Population Doubling time: KB cells, control 23 hr
Method: (§1) Population doubling times and cell viability were measured in uninfected HFF and/or KB cells. Cells were planted in replicate 6-well plastic tissue culture dishes or in 25 cm^2 flasks as described above in part 1. Following an incubation period during which cells attached to the substrate, medium was decanted, the cell sheet rinsed once with HBS, and fresh medium added. The medium consisted of MEM(E) with 1.1 gm NaHCO3 /liter and 10% fetal bovine or calf serum plus appropriate log or half-log concentrations of drug. After additional periods of incubation from 1 to 72 hours at 37° C., cells were harvested by means of 0.05% trypsin plus 0.02% EDTA in a HEPES-buffered salt solution. Cells were enumerated using either a Coulter counter or a hemocytometer and viability determining using trypsan blue dye exclusion.
In more extensive cytotoxicity testing, the halogenated compounds were tested for effects on the growth of KB cells. Populations doubling times were calculated from the logarithmic portions of growth curves and were as follows: […]

HFF cells = experiment: Growth of HFF cells; type: cell-based, human; conditions: for HFF population doublings in 70 hours: 100 μM, control two doublings
Method: as §1
The effect of these compounds on the growth of human diploid fibroblasts (HFF cells) was less pronounced. During a 70-hour incubation, control cells underwent two doublings. […] A 100 μM concentration reduced the number of cells by less than 10%.

[1] = comparison with UMJD 102 / UMJD 183

Structure (SMILES) | IC50 (HCMV DNA synthesis) [µM] | effect on KB cell growth (in words) (KB cells; [1]) | Population Doubling time (KB cells; 1.0 μM) [h] | Population Doubling time (KB cells; 10.0 μM) [h] | other results
Nc1nc(O)c2ncn(COC(CO)CO)c2n1 [Ganciclovir (DHPG), reference compound] | 1.1 | – | – | – | –
OCC(CO)OCn1cc(Br)c2c(NO)ncnc21 [UMJD 299, 4-hydroxylamino-5-bromo-7-[(1,3-dihydroxy-2-propoxy)methyl]pyrrolo[2,3-d]pyrimidine] | – | considerably lesser effects on cell growth | – | – | KB cell growth rate (in words) (KB cells; 10 μM): nearly control rates
Nc1ncnc2c1c(I)cn2COCCO [UMJD 104, 4-Amino-5-iodo-7-(2-hydroxyethoxymethyl)pyrrolo[2,3-d]-pyrimidine] | 47 | – | 25 | 30 | Population Doubling time (KB cells; 0.1 μM): 26 h; effect on growth of HFF cells relative to UMJD 100 (in words) (HFF cells): more pronounced; HFF population doublings in 70 hours (HFF cells; 70 hours): one population doubling
Nc1ncnc2c1c(Cl)cn2COCCO [UMJD 100, 4-Amino-5-chloro-7-(2-hydroxyethoxymethyl)pyrrolo[2,3-d]-pyrimidine] | 15 | – | 25 | 25 | effect on KB cell growth (in words) (KB cells; 100 μM): only a minor extent; Population Doubling time (KB cells; 100.0 μM): 27 h; effect on number of HFF cells present at 70 hours (in words) (HFF cells; 10 or 32 μM, 70 hours): no decrease in the number of cells
Nc1ncnc2c1c(Br)cn2COC(CO)CO [UMJD 183, 4-amino-5-bromo-7-[(1,3-dihydroxy-2-propoxy)methyl]-pyrrolo[2,3-d]pyrimidine] | – | inhibited, but to a lesser extent | – | – | duration of KB cell growth in presence of drug before slowing or stopping (KB cells): up to 20 hours; KB cell growth for 50 hours (in words) (KB cells; up to 32 μM, 50 hours): at a reduced rate
Nc1ncnc2c1c(Br)cn2COCCO [UMJD 102, 4-Amino-5-bromo-7-(2-hydroxyethoxymethyl)pyrrolo[2,3-d]-pyrimidine] | 3.2 | cytostatic | 43 | 84 | Population Doubling time (KB cells; 0.1 μM): 30 h; minimal effective concentration (KB cells; Homo sapiens, KB, read-out: lowest concentration that inhibited growth of KB cells): 0.1 µM; effect on growth of HFF cells relative to UMJD 100 (in words) (HFF cells): more pronounced; HFF population doublings in 70 hours (HFF cells; 70 hours): one population doubling
Nc1nc2c(ncn2COCCO)c(=O)[nH]1 [Acyclovir, reference compound] | 35 | – | – | – | –
